# Measurements reported in PMC10254233, “Synthesis and In Vitro Biological Evaluation of p-Carborane-Based Di-tert-butylphenol Analogs” (Molecules, 2023).
# Key:
# 5-LO = target: T1, 5-LO (Homo sapiens, UniProt P09917); assay: 5-LO product formation in intact PMNL; conditions: PMNL, read-out: inhibition of 5-LO product formation
# T1 sequence (P09917 1-674): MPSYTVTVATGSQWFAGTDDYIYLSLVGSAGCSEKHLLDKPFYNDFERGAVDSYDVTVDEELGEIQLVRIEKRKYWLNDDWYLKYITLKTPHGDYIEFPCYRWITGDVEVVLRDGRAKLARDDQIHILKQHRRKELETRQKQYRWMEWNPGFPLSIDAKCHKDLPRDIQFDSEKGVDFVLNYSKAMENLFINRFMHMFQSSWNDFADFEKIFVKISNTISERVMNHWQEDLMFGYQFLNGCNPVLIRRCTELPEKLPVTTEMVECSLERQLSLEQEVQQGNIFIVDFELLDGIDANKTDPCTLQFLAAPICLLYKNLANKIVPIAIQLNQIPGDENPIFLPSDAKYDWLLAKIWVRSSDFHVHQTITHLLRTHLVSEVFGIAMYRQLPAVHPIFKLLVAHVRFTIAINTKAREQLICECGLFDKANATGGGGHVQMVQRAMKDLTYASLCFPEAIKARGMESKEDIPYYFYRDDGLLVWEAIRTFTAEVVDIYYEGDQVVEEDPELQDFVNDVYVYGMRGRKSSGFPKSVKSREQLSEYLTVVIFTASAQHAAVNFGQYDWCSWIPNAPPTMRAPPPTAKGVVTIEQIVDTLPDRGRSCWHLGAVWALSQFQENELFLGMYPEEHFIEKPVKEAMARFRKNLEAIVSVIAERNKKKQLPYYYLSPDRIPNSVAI
# Method: After 10 min at 37 °C, the reaction was stopped by addition of ice-cold methanol (1 mL). HCl (30 μL, 1 M), prostaglandin B1 (200 ng) and PBS (500 μL) were added and the formed metabolites were extracted and analyzed by HPLC as described previously [96].
# physchem = conditions: pH 7.4
# [1] = tested on: MDA-MB-231 triple-negative breast adenocarcinoma; assay: Cell viability, MTT assay, MDA-MB-231; assay type: cell-based, human; conditions: Homo sapiens, MDA-MB-231; 72 h, mean ± SD
# Method: (§1) Five human cell lines (A375 melanoma, A549 lung adenocarcinoma, HCT116 and HT29 colorectal carcinoma, MDA-MB-231 triple-negative breast adenocarcinoma) were used to study the antitumor effects of the di-tert-butylphenols and their respective carborane analogs. All selected cell lines were derived from inflammation-associated tumors.
# (§2) After the incubation period, the supernatant was discarded from the wells, and the cells were washed two times with 200 µL of PBS. Next, MTT solution at a final concentration of 0.5 mg/mL was added and incubated at 37 °C until purple formazan crystals were formed (30 min to one hour). After incubation, the dye was discarded. In order to dissolve the formed formazan crystals DMSO was added, and the absorbance was measured at λmax = 540 nm, with the reference/background wavelength of 670 nm. All results are expressed as a percentage of the control value which was arbitrary set to 100%. After 72 h treatment, cells were washed with 200 µL of PBS and fixed with 4% paraformaldehyde (PFA) for 15 min at room temperature (RT). Next, cells were stained with 1% CV solution. After 20 min, cells were washed in tap water and dried on air. Dye was dissolved in 33% acetic acid and the absorbance was measured at λmax = 540 nm, with the reference/background wavelength of 670 nm. Results were expressed as a percentage of the control value which was arbitrary set to 100%.
# (§3) 1. General methods, materials, and procedures
# (§4) 1.1.1. Reagents and cells
# (§5) Reagents and cells were obtained from following manufacturers: Capricorn Scientific GmbH (Hessen, Germany) – Culture medium RPMI-1640, Dulbecco's Modified Eagle Medium (DMEM), and fetal bovine serum (FBS). Serva (Heidelberg, Germany) – Paraformaldehyde (PFA). Sigma (St. Louis, MO, USA) – Ethylenediaminetetraacetic acid (EDTA), Dimethyl sulfoxide (DMSO), chloroquine, CV, Triton X-100, RNase, PI, PBS, 3-MA, CFSE, and fluorescent mounting medium. AppliChem (MO, USA) –MTT. Thermo Fisher Scientific (Waltham, MA, USA) – DHR. R&D Systems (Minneapolis, MN, USA) – ApoStat. BD (Pharmingen, San Diego, SAD) – Annexin V-FITC (AnnV). Biological Industries (Cromwell, CT, USA) – Penicillin Streptomycin solution. American Type Culture Collection (ATCC, Manassas, Virginia, USA) – Human lung carcinoma (A549), human breast adenocarcinoma (MDA-MB-231), human colorectal ade-nocarcinoma (HT-29), human colorectal carcinoma (HCT116) and human melanoma (A375).
# (§6) Cell lines (A375, HCT116, HT-29 and MDA-MB-231) were cultivated in HEPES-buffered RPMI-1640 medium while A549 cell line was cultivated in Dulbecco's Modified Eagle Medium (DMEM) which were previously supplemented with 10% heat-inactivated FBS, penicillin (100 units/mL), and streptomycin (100 μg/mL). All cells were kept at 37 °C in a humidified atmosphere with 5% CO2. For viability determi-nation cells were seeded at following densities in 96-well plates: 4 x 10^3 cells/well (A375, HT-29 and MDA-MB-231), 5 x 10^3 cells/well (HCT116), and 3 x 10^3 cells/well (A549). […]
# (§7) Afterwards, cells were washed with phosphate-buffered saline (PBS) and stained with AnnV (15 μg/mL) and PI (15 μg/mL). After 15 min incubation at room temperature (RT) protected from light the cells were resuspended in AnnV-binding buffer and analysed using flow cytom-etry. HCT116 cells were incubated with pan-caspase inhibitor Apostat for 30 min at 37 °C to determine whether detected apoptosis was mediated by caspase activation. Afterwards, cells were washed with PBS and analyzed using flow cytometry. HCT116 cells were stained with 1 µg/mL of AO solution for 15 min at 37 °C to detect the presence of autophagic cell death. Afterwards cells were washed with PBS, resuspended and analyzed by flow cytometry (CyFlow® Space Partec using the PartecFloMax® software
# [2] = tested on: HCT116 colorectal carcinoma; assay: Cell viability, crystal violet (CV) assay, HCT116; assay type: cell-based; conditions: Homo sapiens, HCT-116; 72 h, mean ± SD
# Method: as §1, §2, §3, §4
# as §5, with “American Type Culture Collection (ATCC, Manassas, Virginia, USA) – Human lung carcinoma (A549), human breast adenocarcinoma (MDA-MB-231), human colorectal ade-nocarcinoma (HT-29), human colorectal carcinoma (HCT116) and human melanoma (A375).” left out
# as §7, with “HCT116 cells were stained with 1 µg/mL of AO solution for 15 min at 37 °C to detect the presence of autophagic cell death.” left out
# A549 lung adenocarcinoma [3] = assay: Cell viability, crystal violet (CV) assay, A549; assay type: cell-based; conditions: Homo sapiens, 72 h, mean ± SD
# Method: as §1, §2, §3, §4
# as §5, with “American Type Culture Collection (ATCC, Manassas, Virginia, USA) – Human lung carcinoma (A549), human breast adenocarcinoma (MDA-MB-231), human colorectal ade-nocarcinoma (HT-29), human colorectal carcinoma (HCT116) and human melanoma (A375).” left out
# as §7, with “HCT116 cells were stained with 1 µg/mL of AO solution for 15 min at 37 °C to detect the presence of autophagic cell death.” left out
# A375 melanoma [4] = assay: Cell viability, crystal violet (CV) assay, A375; assay type: cell-based; conditions: Homo sapiens, A-375; 72 h, mean ± SD
# Method: as §1, §2, §3, §4
# as §5, with “American Type Culture Collection (ATCC, Manassas, Virginia, USA) – Human lung carcinoma (A549), human breast adenocarcinoma (MDA-MB-231), human colorectal ade-nocarcinoma (HT-29), human colorectal carcinoma (HCT116) and human melanoma (A375).” left out
# as §7, with “HCT116 cells were stained with 1 µg/mL of AO solution for 15 min at 37 °C to detect the presence of autophagic cell death.” left out
# A375 melanoma [5] = assay: Cell viability, MTT assay, A375; assay type: cell-based, human; conditions: Homo sapiens, A-375; 72 h, mean ± SD
# Method: as §1, §2, §3, §4, §5, §6
# (§8) Afterwards, cells were washed with phosphate-buffered saline (PBS) and stained with AnnV (15 μg/mL) and PI (15 μg/mL). […]
# (§9) PBS and analyzed using flow cytometry. HCT116 cells were stained with 1 µg/mL of AO solution for 15 min at 37 °C to detect the presence of autophagic cell death. Afterwards cells were washed with PBS, resuspended and analyzed by flow cytometry (CyFlow® Space Partec using the PartecFloMax® software
# [6] = tested on: HCT116 colorectal carcinoma; assay: Cell viability, MTT assay, HCT116; assay type: cell-based, human; conditions: Homo sapiens, HCT-116; 72 h, mean ± SD
# Method: as §1, §2, §3, §4, §5, §6, §8, §9
# [7] = tested on: HT-29 colorectal carcinoma; assay: Cell viability, MTT assay, HT-29; assay type: cell-based, human; conditions: Homo sapiens, HT-29; 72 h, mean ± SD
# Method: as §1, §2, §3, §4, §5, §6, §7
# [8] = tested on: HT-29 colorectal carcinoma; assay: Cell viability, crystal violet (CV) assay, HT-29; assay type: cell-based; conditions: Homo sapiens, 72 h, mean ± SD
# Method: as §1, §2, §3, §4
# as §5, with “American Type Culture Collection (ATCC, Manassas, Virginia, USA) – Human lung carcinoma (A549), human breast adenocarcinoma (MDA-MB-231), human colorectal ade-nocarcinoma (HT-29), human colorectal carcinoma (HCT116) and human melanoma (A375).” left out
# as §7, with “HCT116 cells were stained with 1 µg/mL of AO solution for 15 min at 37 °C to detect the presence of autophagic cell death.” left out
# [9] = tested on: MDA-MB-231 triple-negative breast adenocarcinoma; assay: Cell viability, crystal violet (CV) assay, MDA-MB-231; assay type: cell-based; conditions: Homo sapiens, 72 h, mean ± SD
# Method: as §1, §2, §3, §4
# as §5, with “American Type Culture Collection (ATCC, Manassas, Virginia, USA) – Human lung carcinoma (A549), human breast adenocarcinoma (MDA-MB-231), human colorectal ade-nocarcinoma (HT-29), human colorectal carcinoma (HCT116) and human melanoma (A375).” left out
# as §7, with “HCT116 cells were stained with 1 µg/mL of AO solution for 15 min at 37 °C to detect the presence of autophagic cell death.” left out
# A549 lung adenocarcinoma [10] = assay: Cell viability, MTT assay, A549; assay type: cell-based, human; conditions: Homo sapiens, A549; 72 h, mean ± SD
# Method: as §1, §2, §3, §4, §5, §6, §7
# [11] = tested on: primary peritoneal exudate cells; assay: Viability of primary peritoneal exudate cells, CV assay; assay type: cell-based; conditions: 72 h, cells from healthy mice
# Method: Primary peritoneal exudates cells (PEC) isolated from C57BL/6 mice were used to estimate the selec-
# Mice were obtained from the animal facility at the Institute for Biological Research “Siniša Stanković” - National Institute of the Republic of Serbia, University of Belgrade (Belgrade, Serbia). PEC were cultivated in HEPES-buffered (HEPES = 4-
# 5% heat-inactivated fetal bovine serum (FBS) and antibiotics under standard growth conditions (37 °C, 5% CO2). For viability determination cells were seeded at a density of 2 x 10^5 cells/well in 96-well plates.
# Non-adherent cells were removed two hours after seeding and treatment was applied. Cell viability was determined after 72 h using a crystal violet (CV) assay.
# the indicated concentrations for 72 h. Cell viability was determined by the CV test. The data are presented as a mean ± SD from one repre-
# sentative out of three independent experiments. *p<0.05 refer to untreated cultures.
inhibition at 0.1 µM (5-LO) [%],Structure (SMILES),chromatographic logD (physchem),IC50 [1] [µM],IC50 [2] [µM],IC50 (A549 lung adenocarcinoma [3]) [µM],IC50 (A375 melanoma [4]) [µM],IC50 (A375 melanoma [5]) [µM],IC50 [6] [µM],IC50 [7] [µM],IC50 [8] [µM],IC50 [9] [µM],IC50 (A549 lung adenocarcinoma [10]) [µM],viability of primary peritoneal exudate cells [11]
92.5,"CC(=O)N(O)C/C=C/c1cccc(Oc2ccccc2)c1 [BWA4C, N-[(E)-3-(3-Phenoxyphenyl)prop-2-enyl]acetohydroxamic acid]",,,,,,,,,,,,
,"CON1CCC(=Cc2cc(C(C)(C)C)c(O)c(C(C)(C)C)c2)C1=O [Compound E-5110, 3-([3,5-bis(1,1-dimethylethyl)-4-hydroxyphenyl]methylene)-1-methoxy-2-pyrrolidinone]",3.35,34.2 ± 1.2,39.6 ± 2.8,41.1 ± 4.3,33.5 ± 1.7,12.9 ± 1.1,25.1 ± 1.1,25.6 ± 2.6,39.8 ± 2.1,47.3 ± 1.7,22.1 ± 1.6,
,"CC(C)(C)c1cc(C(=O)c2cccs2)cc(C(C)(C)C)c1O [Compound R-830, 2,6-di-tert-butyl-4-(2’-thenoyl)phenol]",3.91,33.3 ± 1.2,30.8 ± 3.2,32.6 ± 1.3,29.4 ± 2.3,16.7 ± 3.1,20.6 ± 0.4,19.4 ± 0.4,24.9 ± 1.3,34 ± 1.6,19 ± 0.7,diminished the viability of primary cells at 100 µM
